“Also recorded” adds a separate entry of the source. Where two headings read alike, the source gives them in different places. Marks after values point to notes of the source that are not given here.
Columns and labels:
[1] = test system: Non-small cell Lung cancer cell NCI-H460; assay: Preliminary cytotoxicity test; type: cell-based, human
CNS cancer cell SF-268 = assay: Preliminary cytotoxicity test; type: cell-based, human
Breast cancer cell MCF-7 = assay: Preliminary cytotoxicity test; type: cell-based, human
[2] = test system: NCI (NCI-H661): human lung large cell carcinoma; assay: In vitro anticancer assay (cytotoxicity), solid tumor cells
Hep2,2,15 = details: Hep2,2,15, Table 1; cited from earlier work
KB cell = details: Table 1; cited from earlier work
topoisomerase I = target: T1, topoisomerase I (Homo sapiens, UniProt P11387); assay: Topoisomerase I assay, cleavage of supercoiled pGEM9zf(−) DNA, gel electrophoresis; type: biochemical; details: for topo I inhibitor, overall conclusion: from FIGS. 1 and 2
T1 sequence (P11387 1-765): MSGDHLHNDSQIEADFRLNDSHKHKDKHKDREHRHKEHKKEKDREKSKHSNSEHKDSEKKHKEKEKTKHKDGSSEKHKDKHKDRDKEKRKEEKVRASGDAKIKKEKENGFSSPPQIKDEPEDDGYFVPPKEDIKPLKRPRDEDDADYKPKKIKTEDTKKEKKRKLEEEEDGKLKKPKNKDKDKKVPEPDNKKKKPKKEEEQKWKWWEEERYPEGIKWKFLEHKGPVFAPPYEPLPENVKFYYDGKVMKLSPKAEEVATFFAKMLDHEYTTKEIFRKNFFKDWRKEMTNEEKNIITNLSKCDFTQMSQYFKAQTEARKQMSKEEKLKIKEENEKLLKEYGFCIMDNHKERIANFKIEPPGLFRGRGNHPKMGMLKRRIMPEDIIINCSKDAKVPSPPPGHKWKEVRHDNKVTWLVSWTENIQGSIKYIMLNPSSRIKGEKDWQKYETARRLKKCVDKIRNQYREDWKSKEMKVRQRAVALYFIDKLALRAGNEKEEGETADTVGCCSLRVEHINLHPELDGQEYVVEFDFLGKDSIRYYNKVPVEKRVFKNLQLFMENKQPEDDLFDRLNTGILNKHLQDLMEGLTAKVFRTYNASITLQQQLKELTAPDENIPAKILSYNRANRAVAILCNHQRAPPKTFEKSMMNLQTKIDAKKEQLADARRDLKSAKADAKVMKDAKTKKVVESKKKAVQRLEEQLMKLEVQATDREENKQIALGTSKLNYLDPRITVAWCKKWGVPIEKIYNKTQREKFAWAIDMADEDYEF

[3] = test system: Hela: human cervix epitheloid carcinoma; assay: In vitro anticancer assay (cytotoxicity), solid tumor cells
[4] = test system: KB: human oral epidermoid carcinoma; assay: as above
[5] = test system: KB: human oral epidermoid carcinoma
[6] = test system: DLD (DLD-1): human colon adenocarcinoma
[7] = test system: Hela: human cervix epitheloid carcinoma
Renal Cancer cell lines = assay: NCI panel, average of cell lines; details: Homo sapiens, read-out: cytotoxicity GI50, average value of all the cancer cell lines
Breast Cancer cell lines = assay: NCI panel, average of cell lines; details: Homo sapiens, read-out: cytotoxicity GI50, average value of all the cancer cell lines
K-562 cells = assay: Cell cycle distribution by flow cytometry; type: cell-based, human; details: K-562, 72 hrs
Protocol: Samples of 1×10^6 Hep G2 cells were plated on a 6 cm tissue culture dish, and the cells were allowed to recover 24 hrs before any treatment. Thereafter, DMSO or a test compound (1 μM, 10 μM or 50 μM) was added to the cells for 1 hr in complete medium at 37° C., washed twice with PBS, and incubated in fresh media for the incubation time. Cell were harvested with trypsin and washed twice with PBS. Samples were fixed in 70% ethanol and stored at 4° C. for at least 24 hrs and then washed once with McIlvaine's buffer (0.2M Na2HPO4, 0.1M citric acid, pH=7.5) and once again with PBS. Samples were stained with PI (propidium iodide) staining solution (PBS containing 100 μg/ml, RNase A and 10 μg/ml PI [Sigma]), processed on a Coulter Elite flow cytometry, and the data analyzed with the Mutiplus AV program.

[8] = test system: Ovarian Cancer cell lines; assay: NCI panel, average of cell lines; details: Homo sapiens, read-out: cytotoxicity GI50, average value of all the cancer cell lines
CNS Cancer cell lines = assay: NCI panel, average of cell lines; details: Homo sapiens, read-out: cytotoxicity GI50, average value of all the cancer cell lines
[9] = test system: Prostate Cancer cell lines; assay: NCI panel, average of cell lines; details: Homo sapiens, read-out: cytotoxicity GI50, average value of all the cancer cell lines
Melanoma cell lines = assay: NCI panel, average of cell lines; details: Homo sapiens, read-out: cytotoxicity GI50, average value of all the cancer cell lines
Leukemia cell lines = assay: NCI panel, average of cell lines; details: Homo sapiens, read-out: cytotoxicity GI50, average value of all the cancer cell lines
[10] = test system: Non-Small Cell Lung Cancer cell lines; assay: NCI panel, average of cell lines; details: Homo sapiens, read-out: cytotoxicity GI50, average value of all the cancer cell lines
Colon Cancer cell lines = assay: NCI panel, average of cell lines; details: Homo sapiens, read-out: cytotoxicity GI50, average value of all the cancer cell lines

2-(6-(2-thioanisyl)-3-hexen-1,5-diynyl)benzonitrile [Compound 31]
Growth percentage [1]: 100%
Growth percentage (CNS cancer cell SF-268): 164%
Growth percentage (Breast cancer cell MCF-7): 62%

2-(6-(2-xylenyl)-3-hexen-1,5-diyne)benzonitrile [Compound 24]
Growth percentage [1]: 129%
Growth percentage (CNS cancer cell SF-268): 111%
Growth percentage (Breast cancer cell MCF-7): 101%

N#Cc1ccccc1C#C/C=C\C#CCOC1CCCCO1 (centres unmarked) [Compound 1, 2-(7-(Tetrahydropyranyloxy)-3(Z)-hepten-1,5-diynyl)-benzonitrile]
IC50 Values of Cytotoxicities [2]: —* (“—” means IC50 > 20 μg/ml)
IC50 (Hep2,2,15): > 10 µM

CCCCC#C/C=C\C#Cc1ccccc1C#N [Compound 3, 2-(3(Z)-Decen-1,5-diynyl)benzonitrile]
IC50 (KB cell): < 0.01 µM

CCCCCC#C/C=C\C#Cc1ccccc1C#N [Compound 4, 2-(3(Z)-Undecen-1,5-diynyl)benzonitrile]
IC50 (KB cell): < 0.01 µM
IC50 (Hep2,2,15): > 10 µM

CCCCC#C/C=C\C#Cc1ccccc1 [Compound 6, (3Z)-Decen-1,5-diynylbenzene]
topo I inhibitor, overall conclusion (topoisomerase I): not Topo I inhibitors

N#Cc1ccccc1C#Cc1ccccc1C#CCOC1CCCCO1 (centres unmarked) [Compound 7, 2-(2-(3-Tetrahydro-pyranyl-5-oxy-1-propynylphenyl)ethynyl)benzonitrile]
IC50 Values of Cytotoxicities [2]: — (“—” means IC50 > 20 μg/ml)
inhibition of topo I (topoisomerase I; 0.87 μM compound): untwisting DNA was revealed
inhibition of topo I (topoisomerase I; 8.7 μM compound): no Topo I inhibition; also recorded: untwisting DNA was revealed
inhibition of topo I (topoisomerase I; 87 μM compound): no Topo I inhibition; also recorded: untwisting DNA was revealed

N#Cc1ccccc1C#Cc1ccccc1C#CCCCOC1CCCCO1 (centres unmarked) [Compound 8]
IC50 Values of Cytotoxicities [2]: — (“—” means IC50 > 20 μg/ml)
inhibition of topo I (topoisomerase I; 0.87 μM compound): untwisting DNA was revealed
inhibition of topo I (topoisomerase I; 8.7 μM compound): no Topo I inhibition; also recorded: untwisting DNA was revealed
inhibition of topo I (topoisomerase I; 87 μM compound): no Topo I inhibition; also recorded: untwisting DNA was revealed

CCCCC#Cc1ccccc1C#Cc1ccccc1C#N [Compound 9, 2-(2-(2-Hexynylphenyl)ethynyl)benzonitrile]
IC50 Values of Cytotoxicities [2]: — (“—” means IC50 > 20 μg/ml)

CCCCCC#Cc1ccccc1C#Cc1ccccc1C#N [Compound 10, 2-(2-(2-Heptynylphenyl)ethynyl)benzonitrile]
IC50 Values of Cytotoxicities [3]: — (“—” means IC50 > 20 μg/ml)
IC50 Values of Cytotoxicities [4]: — (“—” means IC50 > 20 μg/ml)

CCCCCCC#C/C=C\C#Cc1ccc(C#C/C=C\C#CCCCCCC)cc1 [Compound 11, 1,4-Bis-(3-(Z)-Dodecen-1,5-diynyl)benzene]
topo I inhibitor, overall conclusion (topoisomerase I): not topo I inhibitors

CCCCCCC#C/C=C\C#Cc1ccc(-c2ccc(C#C/C=C\C#CCCCCCC)cc2)cc1 [Compound 12, 4,4′-Bis-(3-(Z)-Dodecen-1,5-diynyl)biphenyl]
topo I inhibitor, overall conclusion (topoisomerase I): not topo I inhibitors

CCCCC#C/C=C\C#Cc1ccc(Cl)cc1 [Compound 13]
IC50 Values of Cytotoxicities [5]: — (key: “—” means IC50 > 20 μg/ml)
IC50 Values of Cytotoxicities (Hepa: human hepatoma): — (key: “—” means IC50 > 20 μg/ml)

CCCCCCC#C/C=C\C#Cc1ccc(C(F)(F)F)cc1 [Compound 18, 4-(3-(Z)-Dodecen-1,5-diynyl)trifluoromethylbenzene]
topo I inhibitor, overall conclusion (topoisomerase I): displayed topo I inhibitory activities

CCCCCCC#C/C=C\C#Cc1cccc(C(F)(F)F)c1 [Compound 19, 3-(3-(Z)-Dodecen-1,5-diynyl)trifluoromethylbenzene]
IC50 Values of Cytotoxicities [3]: — (“—” means IC50 > 20 μg/ml)

CCCCCCC#C/C=C\C#Cc1ccc([N+](=O)[O-])cc1 [Compound 21, 4-nitro-1-(3-(Z)-dodecen-1,5-diynyl)benzene]
IC50 ([4]; Homo sapiens, read-out: IC50 Values of Cytotoxicities): > 20 µg/mL

CCCCCCC#C/C=C\C#Cc1ccccc1C(=O)O [Compound 22, 2-(3-(Z)-Dodecen-1,5-diynyl)benzoate]
IC50 Values of Cytotoxicities [2]: — (“—” means IC50 > 20 μg/ml)

CCCCCCC#C/C=C\C#Cc1ccc(C(C)=O)cc1 [Compound 23, 4-(3-(Z)-Dodecen-1,5-diynyl)acetophenone]
IC50 Values of Cytotoxicities [6]: — (key: “—” means IC50 > 20 μg/ml)
IC50 Values of Cytotoxicities [7]: — (key: “—” means IC50 > 20 μg/ml)
topo I inhibitor, overall conclusion (topoisomerase I): displayed topo I inhibitory activities
IC50 Values of Cytotoxicities (Hepa: human hepatoma): — (key: “—” means IC50 > 20 μg/ml)

COc1ccc(C#CC=CC#Cc2ccccc2C#N)cc1 [Compound 25]
Growth percentage [1]: 48%
Growth percentage (CNS cancer cell SF-268): 91%
Growth percentage (Breast cancer cell MCF-7): 90%

N#Cc1ccccc1C#CC=CC#Cc1ccccn1 [Compound 27, 2-(6-(2-pyridinyl)-3-hexen-1,5-diynyl)benzonitrile]
GI50 (Renal Cancer cell lines): 21.7 µM
Growth percentage [1]: 23* %
GI50 (Breast Cancer cell lines): 14.3 µM
accumulation of G2/M stage cells (K-562 cells): an accumulation of G2/M stage cells
GI50 [8]: 27.3 µM
Growth percentage (CNS cancer cell SF-268): 83%
GI50 (CNS Cancer cell lines): 20.9 µM
GI50 [9]: 21.2 µM
GI50 (Melanoma cell lines): 14.2 µM
GI50 (Leukemia cell lines): 12.8 µM
Growth percentage (Breast cancer cell MCF-7): 49%
GI50 [10]: 19.6 µM

Cc1ccc(C#CC=CC#Cc2ccccc2C#N)cc1 [Compound 28, 2-(6-(4-tolyl)-3-hexen-1,5-diynyl)benzonitrile]
Growth percentage [1]: 96%
Growth percentage (CNS cancer cell SF-268): 105%
Growth percentage (Breast cancer cell MCF-7): 80%

N#Cc1ccccc1C#CC=CC#Cc1cccs1 [Compound 29, 2-(6-(2-thienyl)-3-hexen-1,5-diynyl)benzonitrile]
Growth percentage [1]: 34%
Growth percentage (CNS cancer cell SF-268): 96%
Growth percentage (Breast cancer cell MCF-7): 49%

N#Cc1ccccc1C#CC=CC#Cc1cnccn1 [Compound 30, 2-(6-(2-pyrazinyl)-3-hexen-1,5-diynyl)benzonitrile]
GI50 (Renal Cancer cell lines): 27 µM
Growth percentage [1]: 8* %
GI50 (Breast Cancer cell lines): 33.3 µM
accumulation of G2/M stage cells (K-562 cells): an accumulation of G2/M stage cells
GI50 [8]: 38.1 µM
Growth percentage (CNS cancer cell SF-268): 84%
GI50 (CNS Cancer cell lines): 32.2 µM
GI50 [9]: 33.6 µM
GI50 (Melanoma cell lines): 18.7 µM
GI50 (Colon Cancer cell lines): 7.54 µM
GI50 (Leukemia cell lines): 5.05 µM
Growth percentage (Breast cancer cell MCF-7): 73%
GI50 [10]: 11.8 µM

N#Cc1ccccc1C#CC=CC#Cc1ccccc1N [Compound 32, 2-[6-(o-anilinyl)-3-hexen-1,5-diynyl]benzonitrile]
GI50 (Renal Cancer cell lines): 0.66 µM
Growth percentage [1]: 8* %
GI50 (Breast Cancer cell lines): 2 µM
accumulation of G2/M stage cells (K-562 cells): an accumulation of G2/M stage cells
GI50 [8]: 1.55 µM
Growth percentage (CNS cancer cell SF-268): 27* %
GI50 (CNS Cancer cell lines): 9.44 µM
GI50 [9]: 3.13 µM
GI50 (Melanoma cell lines): 0.77 µM
GI50 (Colon Cancer cell lines): 0.47 µM
GI50 (Leukemia cell lines): 0.43 µM
Growth percentage (Breast cancer cell MCF-7): 36%
GI50 [10]: 1.7 µM

N#Cc1ccccc1C#CC=CC#Cc1ccc(N)cc1 [Compound 33, 2-[6-(p-anilinyl)-3-hexen-1,5-diynyl]benzonitrile]
Growth percentage [1]: 94%
Growth percentage (CNS cancer cell SF-268): 92%
Growth percentage (Breast cancer cell MCF-7): 100%

FC(F)(F)c1ccc(C#Cc2ccccc2C#Cc2ccc(C(F)(F)F)cc2)cc1 [Compound 42]
Growth percentage [1]: 78%
Growth percentage (CNS cancer cell SF-268): 55%
Growth percentage (Breast cancer cell MCF-7): 37%

CC[C@@]1(O)C(=O)OCc2c1cc1n(c2=O)Cc2cc3ccccc3nc2-1 [camptothecin, reference compound]
inhibition of topo I (topoisomerase I): less topo I inhibitory activity; also recorded: observable inhibition of topo I

From patent US7332623B2 (Kaohsiung Medical University, priority 2003, dated 2008)
